Test results published in paper PMC7402526, “An in vitro quantitative systems pharmacology approach for deconvolving mechanisms of drug-induced, multilineage cytopenias” (PLoS Computational Biology, 2020).

Key:
[1] = tested on: multi-potent progenitors (MPPs); assay: MLTA, MPPs: concentration-response and QSP model fit; assay type: cell-based, human
How it was run: (§1)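 Parameters come from fitting an Emax-based QSP model, with L1 regularization and Emax ranging 0–2, to vehicle-normalized, bead-corrected flow cytometry counts. Counts came from human bone marrow CD34+ cells treated from day 0 through a 6-day multi-lineage cytokine culture in SFEM II, using 2–7 donors per drug.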

[2] = tested on: granulocyte-macrophage progenitor (GMPs); assay: MLTA, GMPs: concentration-response and QSP model fit; assay type: cell-based, human; settings: Homo sapiens, 144 h, 6 days, normalized to vehicle control, read-out: GMPs normalized cell count
How it was run: as §1

[3] = tested on: granulocyte progenitor (Gran-lin prog); assay: MLTA, GranP: concentration-response and QSP model fit; assay type: cell-based, human; settings: Homo sapiens, 144 h
How it was run: as §1

[4] = tested on: early erythroid cells (Eryth I); assay: MLTA, ErythI: concentration-response and QSP model fit; assay type: cell-based, human
How it was run: as §1

MK cells (MK-lin) = assay: MLTA, MK: concentration-response and QSP model fit; assay type: cell-based, human; settings: Homo sapiens, 144 h
How it was run: as §1

[5] = tested on: lymphocyte progenitors (LymP); assay: MLTA, LymP: concentration-response and QSP model fit; assay type: cell-based, human; settings: Homo sapiens, Lymphocyte, 144 h
How it was run: as §1

B cells (B-lin) = assay: MLTA, B-lin: concentration-response and QSP model fit; assay type: cell-based, human; settings: Homo sapiens, B-cell, 144 h
How it was run: as §1

[6] = tested on: total viable cells (totalViableCells); assay: MLTA, total live cells concentration-response; assay type: cell-based; settings: Homo sapiens, 144 h, 6 days, normalized to vehicle control, read-out: total_live normalized cell count
Method: A custom optimized cytokine cocktail was developed using commercially available cytokines (Peprotech, New Jersey) to facilitate simultaneous multi-lineage differentiation and self-renewal of freeze-thawed primary human bone marrow-derived CD34+ cells in SFEM II media (cells and media from StemCell Technologies, Vancouver). Cultures were carried out in ultra-low attachment 96-well plates (Corning, New York) with test article added on day 0 and cultured at 37°C, 85% relative humidity, and 5% CO2 for six days before interrogating drug impact via 17-parameter flow cytometry.
The flow cytometry panel used to define hematopoietic subsets was composed of CD34-PECy7, CD90-PECY5, CD38-AF488, CD371-PE, CD45Ra-BV421, CD14-BV605, CD42b-AF647, CD10-PEDazzle594, CD235a-PerCPCy5.5 (BioLegend, California), CD15-BUV395, CD41a-APCH7, CD71-BV786 (BD Biosciences, California), and DAPI for dead cell exclusion (ThermoFisher, California). In short, Day 6 cells were harvested, FcR-blocked (FcR binding inhibitor, ThermoFisher), surface-stained, then analyzed in a buffer containing TruCount Control Beads using a BD LSR Fortessa SORP fitted with a high-throughput sampler (BD Biosciences, California). Data was analyzed in Diva 6.0.2 and exported to CSV where after all cell data was transformed to cell per mL then normalized on a per-donor basis to untreated control wells to determine drug impact.
Donor material was collected and cultured as described above. The number of replicate donor samples per drug ranged from 2–7 and varied per drug (S1 Table). Drug treatment was added at time 0 and cells were maintained in culture for 6 days. Concentrations tested for each drug compound are contained in S1 Table. Concentrations were selected to span a range that is clinically useful. Following treatment, cell populations were measured using flow cytometry. We extracted cell counts from flow cytometry data, normalized to bead counts, and corrected for well volume.
Each well was normalized to the average of six vehicle control wells. For drugs that were tested across multiple runs of the assay, vehicle-normalized donor data were pooled, and we used the average of these pooled data for further modeling. Normalized data used as model inputs are included in S1 Table.

[7] = cell-killing component, max(0, EmaxT-1)
[8] = QSP model fit of 6-day MLTA data

EC50 ([1]; Homo sapiens, 144 h, QSP model fit of 6-day MLTA data): 4.71 nM | EC50 ([4]; Homo sapiens, 144 h, QSP model fit of 6-day MLTA data, read-out: EC50ErythI): 8.14 nM | EC50 (MK cells (MK-lin); [8]): 7.79 nM | EC50 (B cells (B-lin); [8]): 10.4 nM
SMILES: CC(=O)O[C@@]12CO[C@@H]1C[C@H](O)[C@@]1(C)C(=O)[C@H](O)C3=C(C)[C@@H](OC(=O)[C@H](O)[C@@H](NC(=O)OC(C)(C)C)c4ccccc4)C[C@@](O)([C@@H](OC(=O)c4ccccc4)[C@H]21)C3(C)C [docetaxel]
activity at 0.0002 µM ([1]; Homo sapiens, 144 h, dose 0.2 nM, 6 days, normalized to vehicle control, read-out: MPPs normalized cell count): 91% | activity at 0.001 µM ([1]; Homo sapiens, 144 h, dose 1 nM, 6 days, normalized to vehicle control, read-out: MPPs normalized cell count): 107% | activity at 0.005 µM ([1]; Homo sapiens, 144 h, dose 5 nM, 6 days, normalized to vehicle control, read-out: MPPs normalized cell count): 63.9% | activity at 0.025 µM ([1]; Homo sapiens, 144 h, dose 25 nM, 6 days, normalized to vehicle control, read-out: MPPs normalized cell count): 2.42% | activity at 0.1 µM ([1]; Homo sapiens, 144 h, dose 100 nM, 6 days, normalized to vehicle control, read-out: MPPs normalized cell count): 0.694% | activity at 0.5 µM ([1]; Homo sapiens, 144 h, dose 500 nM, 6 days, normalized to vehicle control, read-out: MPPs normalized cell count): 2.03% | activity at 2.5 µM ([1]; Homo sapiens, 144 h, dose 2500 nM, 6 days, normalized to vehicle control, read-out: MPPs normalized cell count): 0.798% | Emax ([1]; Homo sapiens, 144 h, parameter from QSP model fitting, read-out: Emax_drug_MPP): 201% | EmaxCK,MPP [1, 7]: 1.014 day⁻¹ | activity at 0.0002 µM ([2]; dose 0.2 nM): 103% | activity at 0.001 µM ([2]; dose 1 nM): 126% | activity at 0.005 µM ([2]; dose 5 nM): 15.2% | activity at 0.025 µM ([2]; dose 25 nM): 0.367% | activity at 0.1 µM ([2]; dose 100 nM): 0.162% | activity at 0.5 µM ([2]; dose 500 nM): 0.693% | activity at 2.5 µM ([2]; dose 2500 nM): 0.207% | activity at 0.0002 µM ([3]; dose 0.2 nM, 6 days, normalized to vehicle control, read-out: GranPs normalized cell count): 110% | activity at 0.001 µM ([3]; dose 1 nM, 6 days, normalized to vehicle control, read-out: GranPs normalized cell count): 110% | activity at 0.005 µM ([3]; dose 5 nM, 6 days, normalized to vehicle control, read-out: GranPs normalized cell count): 4.64% | activity at 0.025 µM ([3]; dose 25 nM, 6 days, normalized to vehicle control, read-out: GranPs normalized cell count): 0% | activity at 0.1 µM ([3]; dose 100 nM, 6 days, normalized to vehicle control, read-out: GranPs normalized cell count): 0.0204% | activity at 0.5 µM ([3]; dose 500 nM, 6 days, normalized to vehicle control, read-out: GranPs normalized cell count): 0.0147% | activity at 2.5 µM ([3]; dose 2500 nM, 6 days, normalized to vehicle control, read-out: GranPs normalized cell count): 0.0152% | Emax ([3]; parameter from QSP model fitting, read-out: Emax_drug_GranP): 0.04% | activity at 0.0002 µM ([4]; Homo sapiens, 144 h, dose 0.2 nM, 6 days, normalized to vehicle control, read-out: ErythI normalized cell count): 112% | activity at 0.001 µM ([4]; Homo sapiens, 144 h, dose 1 nM, 6 days, normalized to vehicle control, read-out: ErythI normalized cell count): 110% | activity at 0.005 µM ([4]; Homo sapiens, 144 h, dose 5 nM, 6 days, normalized to vehicle control, read-out: ErythI normalized cell count): 5.32% | activity at 0.025 µM ([4]; Homo sapiens, 144 h, dose 25 nM, 6 days, normalized to vehicle control, read-out: ErythI normalized cell count): 0.559% | activity at 0.1 µM ([4]; Homo sapiens, 144 h, dose 100 nM, 6 days, normalized to vehicle control, read-out: ErythI normalized cell count): 0.401% | activity at 0.5 µM ([4]; Homo sapiens, 144 h, dose 500 nM, 6 days, normalized to vehicle control, read-out: ErythI normalized cell count): 0.687% | activity at 2.5 µM ([4]; Homo sapiens, 144 h, dose 2500 nM, 6 days, normalized to vehicle control, read-out: ErythI normalized cell count): 0.409% | Emax ([4]; Homo sapiens, 144 h, parameter from QSP model fitting, read-out: Emax_drug_ErythroidI): 173% | EmaxCK,ErythI [4, 7]: 0.726 day⁻¹ | activity at 0.0002 µM (MK cells (MK-lin); dose 0.2 nM, 6 days, normalized to vehicle control, read-out: MK normalized cell count): 94.7% | activity at 0.001 µM (MK cells (MK-lin); dose 1 nM, 6 days, normalized to vehicle control, read-out: MK normalized cell count): 109% | activity at 0.005 µM (MK cells (MK-lin); dose 5 nM, 6 days, normalized to vehicle control, read-out: MK normalized cell count): 14.4% | activity at 0.025 µM (MK cells (MK-lin); dose 25 nM, 6 days, normalized to vehicle control, read-out: MK normalized cell count): 1.1% | activity at 0.1 µM (MK cells (MK-lin); dose 100 nM, 6 days, normalized to vehicle control, read-out: MK normalized cell count): 0.719% | activity at 0.5 µM (MK cells (MK-lin); dose 500 nM, 6 days, normalized to vehicle control, read-out: MK normalized cell count): 0.951% | activity at 2.5 µM (MK cells (MK-lin); dose 2500 nM, 6 days, normalized to vehicle control, read-out: MK normalized cell count): 1.05% | Emax (MK cells (MK-lin); parameter from QSP model fitting, read-out: Emax_drug_MK): 12.6% | activity at 0.0002 µM ([5]; dose 0.2 nM, 6 days, normalized to vehicle control, read-out: LymP normalized cell count): 96.4% | activity at 0.001 µM ([5]; dose 1 nM, 6 days, normalized to vehicle control, read-out: LymP normalized cell count): 131% | activity at 0.005 µM ([5]; dose 5 nM, 6 days, normalized to vehicle control, read-out: LymP normalized cell count): 24.3% | activity at 0.025 µM ([5]; dose 25 nM, 6 days, normalized to vehicle control, read-out: LymP normalized cell count): 6.02% | activity at 0.1 µM ([5]; dose 100 nM, 6 days, normalized to vehicle control, read-out: LymP normalized cell count): 2.7% | activity at 0.5 µM ([5]; dose 500 nM, 6 days, normalized to vehicle control, read-out: LymP normalized cell count): 7.71% | activity at 2.5 µM ([5]; dose 2500 nM, 6 days, normalized to vehicle control, read-out: LymP normalized cell count): 6.19% | Emax ([5]; parameter from QSP model fitting, read-out: Emax_drug_LymP): 0.16% | activity at 0.0002 µM (B cells (B-lin); dose 0.2 nM, 6 days, normalized to vehicle control, read-out: B-lin normalized cell count): 89% | activity at 0.001 µM (B cells (B-lin); dose 1 nM, 6 days, normalized to vehicle control, read-out: B-lin normalized cell count): 94.8% | activity at 0.005 µM (B cells (B-lin); dose 5 nM, 6 days, normalized to vehicle control, read-out: B-lin normalized cell count): 3.47% | activity at 0.025 µM (B cells (B-lin); dose 25 nM, 6 days, normalized to vehicle control, read-out: B-lin normalized cell count): 0.169% | activity at 0.1 µM (B cells (B-lin); dose 100 nM, 6 days, normalized to vehicle control, read-out: B-lin normalized cell count): 1.5% | activity at 0.5 µM (B cells (B-lin); dose 500 nM, 6 days, normalized to vehicle control, read-out: B-lin normalized cell count): 1.33% | activity at 2.5 µM (B cells (B-lin); dose 2500 nM, 6 days, normalized to vehicle control, read-out: B-lin normalized cell count): 0.24% | Emax (B cells (B-lin); parameter from QSP model fitting, read-out: Emax_drug_B): 102% | viability at 0.0002 µM ([6]; dose 0.2 nM): 100% | viability at 0.001 µM ([6]; dose 1 nM): 108% | viability at 0.005 µM ([6]; dose 5 nM): 4.66% | viability at 0.025 µM ([6]; dose 25 nM): 0.311% | viability at 0.1 µM ([6]; dose 100 nM): 0.197% | viability at 0.5 µM ([6]; dose 500 nM): 0.378% | viability at 2.5 µM ([6]; dose 2500 nM): 0.283%
